Measured values from PubChem BioAssay (NCI).
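Each compound was tested at five concentrations against cells in 96-well plates for 48 hours. GI50 marks 50% less growth. TGI marks complete inhibition of growth.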

Tests used:
Test in all cases: DTP human tumour cell line panel, 48 h
786-0 renal = test system: 786-0 renal
A498 renal = test system: A498 renal
A549 NSCLC = test system: A549 NSCLC
ACHN renal = test system: ACHN renal
BT-549 breast = test system: BT-549 breast
CAKI-1 renal = test system: CAKI-1 renal
CCRF-CEM leukemia = test system: CCRF-CEM leukemia
COLO 205 colon = test system: COLO 205 colon
DU-145 prostate = test system: DU-145 prostate
EKVX NSCLC = test system: EKVX NSCLC
HCC-2998 colon = test system: HCC-2998 colon
HCT-116 colon = test system: HCT-116 colon
HCT-15 colon = test system: HCT-15 colon
HL-60(TB) leukemia = test system: HL-60(TB) leukemia
HOP-62 NSCLC = test system: HOP-62 NSCLC
HOP-92 NSCLC = test system: HOP-92 NSCLC
HS 578T breast = test system: HS 578T breast
HT29 colon = test system: HT29 colon
IGROV1 ovarian = test system: IGROV1 ovarian
K-562 leukemia = test system: K-562 leukemia
KM12 colon = test system: KM12 colon
LOX IMVI melanoma = test system: LOX IMVI melanoma
M14 melanoma = test system: M14 melanoma
MALME-3M melanoma = test system: MALME-3M melanoma
MCF7 breast = test system: MCF7 breast
MDA-MB-231 breast = test system: MDA-MB-231 breast
MDA-MB-435 = test system: MDA-MB-435
MOLT-4 leukemia = test system: MOLT-4 leukemia
NCI-H226 lung = test system: NCI-H226 lung
NCI-H23 lung = test system: NCI-H23 lung
NCI-H460 lung = test system: NCI-H460 lung
NCI-H522 lung = test system: NCI-H522 lung
NCI/ADR-RES ovarian = test system: NCI/ADR-RES ovarian
OVCAR-4 ovarian = test system: OVCAR-4 ovarian
OVCAR-5 ovarian = test system: OVCAR-5 ovarian
OVCAR-8 ovarian = test system: OVCAR-8 ovarian
PC-3 prostate = test system: PC-3 prostate
RPMI-8226 leukemia = test system: RPMI-8226 leukemia
RXF 393 renal = test system: RXF 393 renal
SF-268 CNS = test system: SF-268 CNS
SF-295 CNS = test system: SF-295 CNS
SF-539 CNS = test system: SF-539 CNS
SK-MEL-2 melanoma = test system: SK-MEL-2 melanoma
SK-MEL-28 melanoma = test system: SK-MEL-28 melanoma
SK-MEL-5 melanoma = test system: SK-MEL-5 melanoma
SK-OV-3 ovarian = test system: SK-OV-3 ovarian
SN12C renal = test system: SN12C renal
SNB-19 CNS = test system: SNB-19 CNS
SNB-75 CNS = test system: SNB-75 CNS
SR leukemia = test system: SR leukemia
SW-620 colon = test system: SW-620 colon
T-47D breast = test system: T-47D breast
TK-10 renal = test system: TK-10 renal
U251 CNS = test system: U251 CNS
UACC-257 melanoma = test system: UACC-257 melanoma
UACC-62 melanoma = test system: UACC-62 melanoma
UO-31 renal = test system: UO-31 renal
OVCAR-3 ovarian = test system: OVCAR-3 ovarian

O=C(NNc1nc2cc(F)ccc2n2c(CN3CCCC3)ccc12)c1cnccn1
GI50 (786-0 renal): 2.07 µM
TGI (786-0 renal): 11.3 µM
GI50 (A498 renal): 1.31 µM
TGI (A498 renal): 4.99 µM
GI50 (A549 NSCLC): 1.38 µM
TGI (A549 NSCLC): 12.2 µM
GI50 (ACHN renal): 0.899 µM
TGI (ACHN renal): > 100 µM
GI50 (BT-549 breast): 3.26 µM
TGI (BT-549 breast): 26 µM
GI50 (CAKI-1 renal): 1.61 µM
TGI (CAKI-1 renal): 18.1 µM
GI50 (CCRF-CEM leukemia): 0.521 µM
TGI (CCRF-CEM leukemia): > 100 µM
GI50 (COLO 205 colon): 1.62 µM
TGI (COLO 205 colon): 15.1 µM
GI50 (DU-145 prostate): 1.49 µM
TGI (DU-145 prostate): 13 µM
GI50 (EKVX NSCLC): 1.01 µM
TGI (EKVX NSCLC): 16.2 µM
GI50 (HCC-2998 colon): 3.51 µM
TGI (HCC-2998 colon): 27.8 µM
GI50 (HCT-116 colon): 0.725 µM
TGI (HCT-116 colon): 12.4 µM
GI50 (HCT-15 colon): 0.324 µM
TGI (HCT-15 colon): 21.7 µM
GI50 (HL-60(TB) leukemia): 1.43 µM
TGI (HL-60(TB) leukemia): 4.84 µM
GI50 (HOP-62 NSCLC): 0.613 µM
TGI (HOP-62 NSCLC): 6.3 µM
GI50 (HOP-92 NSCLC): 2.6 µM
TGI (HOP-92 NSCLC): 28.9 µM
GI50 (HS 578T breast): 4.55 µM
TGI (HS 578T breast): > 100 µM
GI50 (HT29 colon): 0.599 µM
TGI (HT29 colon): 14.1 µM
GI50 (IGROV1 ovarian): 0.747 µM
TGI (IGROV1 ovarian): 11.5 µM
GI50 (K-562 leukemia): 0.599 µM
TGI (K-562 leukemia): > 100 µM
GI50 (KM12 colon): 1.19 µM
TGI (KM12 colon): 16.5 µM
GI50 (LOX IMVI melanoma): 0.893 µM
TGI (LOX IMVI melanoma): 11 µM
GI50 (M14 melanoma): 1.61 µM
TGI (M14 melanoma): 12.1 µM
GI50 (MALME-3M melanoma): 2.81 µM
TGI (MALME-3M melanoma): 54.2 µM
GI50 (MCF7 breast): 0.932 µM
TGI (MCF7 breast): 8.1 µM
GI50 (MDA-MB-231 breast): 2.3 µM
TGI (MDA-MB-231 breast): 20.2 µM
GI50 (MDA-MB-435): 3.95 µM
TGI (MDA-MB-435): > 100 µM
GI50 (MOLT-4 leukemia): 0.773 µM
TGI (MOLT-4 leukemia): > 100 µM
GI50 (NCI-H226 lung): 3.33 µM
TGI (NCI-H226 lung): 23.1 µM
GI50 (NCI-H23 lung): 2.45 µM
TGI (NCI-H23 lung): 18.5 µM
GI50 (NCI-H460 lung): 0.568 µM
TGI (NCI-H460 lung): 5.43 µM
GI50 (NCI-H522 lung): 2.12 µM
TGI (NCI-H522 lung): 5.55 µM
GI50 (NCI/ADR-RES ovarian): 0.569 µM
TGI (NCI/ADR-RES ovarian): 6.32 µM
GI50 (OVCAR-4 ovarian): 2.05 µM
TGI (OVCAR-4 ovarian): 55.8 µM
GI50 (OVCAR-5 ovarian): 1.31 µM
TGI (OVCAR-5 ovarian): 16.1 µM
GI50 (OVCAR-8 ovarian): 1 µM
TGI (OVCAR-8 ovarian): 10.6 µM
GI50 (PC-3 prostate): 2.17 µM
TGI (PC-3 prostate): 19.8 µM
GI50 (RPMI-8226 leukemia): 0.955 µM
TGI (RPMI-8226 leukemia): 49.2 µM
GI50 (RXF 393 renal): 1.62 µM
TGI (RXF 393 renal): 7.56 µM
GI50 (SF-268 CNS): 1.38 µM
TGI (SF-268 CNS): 33.9 µM
GI50 (SF-295 CNS): 0.627 µM
TGI (SF-295 CNS): 15.8 µM
GI50 (SF-539 CNS): 1.49 µM
TGI (SF-539 CNS): 10.4 µM
GI50 (SK-MEL-2 melanoma): 2.48 µM
TGI (SK-MEL-2 melanoma): 10.8 µM
GI50 (SK-MEL-28 melanoma): 3.4 µM
TGI (SK-MEL-28 melanoma): 21.4 µM
GI50 (SK-MEL-5 melanoma): 2.81 µM
TGI (SK-MEL-5 melanoma): 8.1 µM
GI50 (SK-OV-3 ovarian): 1.67 µM
TGI (SK-OV-3 ovarian): 12.8 µM
GI50 (SN12C renal): 2.16 µM
TGI (SN12C renal): > 100 µM
GI50 (SNB-19 CNS): 2.39 µM
TGI (SNB-19 CNS): 24.6 µM
GI50 (SNB-75 CNS): 3.72 µM
TGI (SNB-75 CNS): 30.9 µM
GI50 (SR leukemia): 0.416 µM
TGI (SR leukemia): > 100 µM
GI50 (SW-620 colon): 1.93 µM
TGI (SW-620 colon): 16.7 µM
GI50 (T-47D breast): 2.39 µM
TGI (T-47D breast): 48.2 µM
GI50 (TK-10 renal): 1.6 µM
TGI (TK-10 renal): 9.84 µM
GI50 (U251 CNS): 1.19 µM
TGI (U251 CNS): 14.6 µM
GI50 (UACC-257 melanoma): 2.14 µM
TGI (UACC-257 melanoma): 6.87 µM
GI50 (UACC-62 melanoma): 2.62 µM
TGI (UACC-62 melanoma): 8.34 µM
GI50 (UO-31 renal): 0.375 µM
TGI (UO-31 renal): 9.57 µM

Nc1cc(-c2c[nH]c3ccc(F)cc23)nc2cc(-c3c[nH]c4ccc(F)cc34)nn12
GI50 (A498 renal): 1.66 µM
TGI (A498 renal): 3.25 µM
GI50 (ACHN renal): 1.88 µM
TGI (ACHN renal): 3.46 µM
GI50 (BT-549 breast): 13.3 µM
TGI (BT-549 breast): 34.9 µM
GI50 (CAKI-1 renal): 2.03 µM
TGI (CAKI-1 renal): 5.29 µM
GI50 (CCRF-CEM leukemia): 3.13 µM
TGI (CCRF-CEM leukemia): > 100 µM
GI50 (COLO 205 colon): 1.74 µM
TGI (COLO 205 colon): 3.15 µM
GI50 (DU-145 prostate): 2.21 µM
TGI (DU-145 prostate): 4.73 µM
GI50 (HCC-2998 colon): 1.95 µM
TGI (HCC-2998 colon): 3.47 µM
GI50 (HCT-15 colon): 1.79 µM
TGI (HCT-15 colon): 3.69 µM
GI50 (HL-60(TB) leukemia): 1.94 µM
TGI (HL-60(TB) leukemia): 5.36 µM
GI50 (HOP-62 NSCLC): 2.06 µM
TGI (HOP-62 NSCLC): 5.85 µM
GI50 (HS 578T breast): 2.35 µM
TGI (HS 578T breast): 5.71 µM
GI50 (HT29 colon): 1.8 µM
TGI (HT29 colon): 3.31 µM
GI50 (K-562 leukemia): 2.92 µM
TGI (K-562 leukemia): > 100 µM
GI50 (KM12 colon): 2 µM
TGI (KM12 colon): 4.26 µM
GI50 (MDA-MB-231 breast): 1.85 µM
TGI (MDA-MB-231 breast): 3.49 µM
GI50 (MDA-MB-435): 1.74 µM
TGI (MDA-MB-435): 3.39 µM
GI50 (MOLT-4 leukemia): 2.33 µM
TGI (MOLT-4 leukemia): 7.29 µM
GI50 (NCI-H226 lung): 2.28 µM
TGI (NCI-H226 lung): 5.52 µM
GI50 (OVCAR-3 ovarian): 1.75 µM
TGI (OVCAR-3 ovarian): 3.19 µM
GI50 (OVCAR-5 ovarian): 1.83 µM
TGI (OVCAR-5 ovarian): 3.77 µM
GI50 (PC-3 prostate): 2.11 µM
TGI (PC-3 prostate): 5.31 µM
GI50 (RPMI-8226 leukemia): 3.05 µM
TGI (RPMI-8226 leukemia): > 100 µM
GI50 (RXF 393 renal): 1.88 µM
TGI (RXF 393 renal): 3.48 µM
GI50 (SK-MEL-2 melanoma): 14.6 µM
TGI (SK-MEL-2 melanoma): 35.3 µM
GI50 (SK-MEL-28 melanoma): 1.83 µM
TGI (SK-MEL-28 melanoma): 3.33 µM
GI50 (SK-MEL-5 melanoma): 1.84 µM
TGI (SK-MEL-5 melanoma): 3.28 µM
GI50 (SN12C renal): 1.92 µM
TGI (SN12C renal): 3.73 µM
GI50 (SNB-19 CNS): 3.03 µM
TGI (SNB-19 CNS): 8.97 µM
GI50 (SNB-75 CNS): 16.3 µM
TGI (SNB-75 CNS): 36.6 µM
GI50 (SW-620 colon): 1.78 µM
TGI (SW-620 colon): 3.3 µM
GI50 (TK-10 renal): 2.22 µM
TGI (TK-10 renal): 4.19 µM
GI50 (UO-31 renal): 1.68 µM
TGI (UO-31 renal): 3.45 µM
